Measured values: patent US8431556B2, “C-21-keto lupane derivatives preparation and use thereof” (Vertex Pharmaceuticals Incorporated, priority 2008, dated 2013)

System: HIV-1 (HIVIIIB)
Assay: HIV-1 replication in MT2 cell line with and without 30% human serum (viral RT activity in supernatant)
Assay type: cell-based
Conditions: Human immunodeficiency virus 1, MT2, MT-2 cells, with 30% human serum, average IC50 if tested more than once, read-out: MT-2 (HIVIIIB) with 30% HS IC50 range
Method: HIV-1 Replication in MT2 cell line with and without 30% human serum: The cells are infected at a Multiciplicity of Infection (MOI) of 0.5 for 3 h and then washed twice with complete media to remove residual virus. Cells are then resuspended at 0.5×10^6/ml in complete medium (RPMI, 10% FBS, 1% sodium pyruvate), and seeded into 96-well plates (6.25×10^4/well). The cells are cultured in the presence or absence of various concentrations of test compounds in serial dilutions for 3 days at 37° C. The test compounds are serially diluted in complete medium supplemented or not with 30% human serum. After 3 days, 100 μL of cultured medium with cells are replaced with 120 μL of freshly diluted test compounds in complete medium containing or not 30% Human serum. The level of HIV-1 replication is determined at days 5 after infection by the presence of viral RT activity in harvested supernatant fluid. The IC50 and IC90 values for the virus replication are determined by using GRAPHPAD PRISM software.
The IC50 of the compounds tested in accordance with the HIV replication activity assay MT-2 (HIVIIIB) are represented in Table 4 (without HS) and Table 5 (with 30% HS)

Row | Structure (SMILES) | IC50
1 | CC(C)C1=C2[C@H]3CC[C@@H]4[C@@]5(C)CC[C@H](OC(=O)CC(C)(C)C(=O)O)C(C)(C)[C@@H]5CC[C@@]4(C)[C@]3(C)CC[C@@]2(C(=O)N2CCCCC2)CC1=O [9-6, 3β-O-(3′,3′-Dimethylsuccinyl)-21-oxolup-18-en-28-oic acid N-piperidinyl acetamide] | < 199 nM
2 | CC(C)C1=C2[C@H]3CC[C@@H]4[C@@]5(C)CC[C@H](OC(=O)CC(C)(C)C(=O)O)C(C)(C)[C@@H]5CC[C@@]4(C)[C@]3(C)CC[C@@]2(C(=O)N2CCOCC2)CC1=O [9-7, 3β-O-(3′,3′-Dimethylsuccinyl)-21-oxolup-18-en-28-oic acid N-morpholyl acetamide] | < 199 nM
3 | CC(=O)N1CCN(C(=O)[C@@]23CC[C@]4(C)[C@H](CC[C@@H]5[C@@]6(C)CC[C@H](OC(=O)CC(C)(C)C(=O)O)C(C)(C)[C@@H]6CC[C@]54C)C2=C(C(C)C)C(=O)C3)CC1 [9-8, 3β-O-(3′,3′-Dimethylsuccinyl)-21-oxolup-18-en-28-oic acid N-(4-acetylpiperazinyl) acetamide] | < 199 nM
4 | CC(C)C1=C2[C@H]3CC[C@@H]4[C@@]5(C)CC[C@H](OC(=O)CC(C)(C)C(=O)O)C(C)(C)[C@@H]5CC[C@@]4(C)[C@]3(C)CC[C@@]2(C(=O)N2CCN(C)CC2)CC1=O [9-9, 3β-O-(3′,3′-Dimethylsuccinyl)-21-oxolup-18-en-28-oic acid N-(4-methylpiperazinyl) acetamide] | < 199 nM
5 | CC(C)C1=C2[C@H]3CC[C@@H]4[C@@]5(C)CC[C@H](OC(=O)CC(C)(C)C(=O)O)C(C)(C)[C@@H]5CC[C@@]4(C)[C@]3(C)CC[C@@]2(C(=O)Nc2ccccc2)CC1=O [9-10, 3β-O-(3′,3′-Dimethylsuccinyl)-21-oxolup-18-en-28-oic acid N-benzamide] | < 199 nM
6 | CC(C)C1=C2[C@H]3CC[C@@H]4[C@@]5(C)CC[C@H](OC(=O)CC(C)(C)C(=O)O)C(C)(C)[C@@H]5CC[C@@]4(C)[C@]3(C)CC[C@@]2(C(=O)N(C)Cc2ccccc2)CC1=O [9-11, 3β-O-(3′,3′-Dimethylsuccinyl)-21-oxolup-18-en-28-oic acid N-methyl-N-benzylamide] | < 199 nM
7 | CC(C)C1=C2[C@H]3CC[C@@H]4[C@@]5(C)CC[C@H](OC(=O)CC(C)(C)C(=O)O)C(C)(C)[C@@H]5CC[C@@]4(C)[C@]3(C)CC[C@@]2(C(=O)NCc2ccccc2Cl)CC1=O [9-12, 3β-O-(3′,3′-Dimethylsuccinyl)-21-oxolup-18-en-28-oic acid N-2-chloro-benzylamide] | < 199 nM
8 | CC(C)C1=C2[C@H]3CC[C@@H]4[C@@]5(C)CC[C@H](OC(=O)CC(C)(C)C(=O)O)C(C)(C)[C@@H]5CC[C@@]4(C)[C@]3(C)CC[C@@]2(C(=O)NCc2ccc(Cl)cc2)CC1=O [9-14, 3β-O-(3′,3′-Dimethylsuccinyl)-21-oxolup-18-en-28-oic acid N-4-chloro-benzylamide] | < 199 nM
9 | COc1ccc(CNC(=O)[C@@]23CC[C@]4(C)[C@H](CC[C@@H]5[C@@]6(C)CC[C@H](OC(=O)CC(C)(C)C(=O)O)C(C)(C)[C@@H]6CC[C@]54C)C2=C(C(C)C)C(=O)C3)cc1 [9-15, 3β-O-(3′,3′-Dimethylsuccinyl)-21-oxolup-18-en-28-oic acid N-4-methoxy-benzylamide] | < 199 nM
10 | CC(C)C1=C2[C@H]3CC[C@@H]4[C@@]5(C)CC[C@H](OC(=O)CC(C)(C)C(=O)O)C(C)(C)[C@@H]5CC[C@@]4(C)[C@]3(C)CC[C@@]2(C(=O)NCc2ccccn2)CC1=O [9-16, 3β-O-(3′,3′-Dimethylsuccinyl)-21-oxolup-18-en-28-oic acid N-pyridin-2-ylmethylamide] | < 199 nM
11 | CC(C)C1=C2[C@H]3CC[C@@H]4[C@@]5(C)CC[C@H](OC(=O)CC(C)(C)C(=O)O)C(C)(C)[C@@H]5CC[C@@]4(C)[C@]3(C)CC[C@@]2(C(=O)NCc2cccnc2)CC1=O [9-17, 3β-O-(3′,3′-Dimethylsuccinyl)-21-oxolup-18-en-28-oic acid N-pyridin-3-ylmethylamide] | < 199 nM
12 | CC(C)C1=C2[C@H]3CC[C@@H]4[C@@]5(C)CC[C@H](OC(=O)CC(C)(C)C(=O)O)C(C)(C)[C@@H]5CC[C@@]4(C)[C@]3(C)CC[C@@]2(C(=O)NCc2ccncc2)CC1=O [9-18, 3β-O-(3′,3′-Dimethylsuccinyl)-21-oxolup-18-en-28-oic acid N-pyridin-4-ylmethylamide] | < 199 nM
13 | CC(C)C1=C2[C@H]3CC[C@@H]4[C@@]5(C)CC[C@H](OC(=O)CC(C)(C)C(=O)O)C(C)(C)[C@@H]5CC[C@@]4(C)[C@]3(C)CC[C@@]2(C(=O)NCCNC(=O)OC(C)(C)C)CC1=O [9-20, 3β-O-(3′,3′-Dimethylsuccinyl)-21-oxolup-18-en-28-oic acid N-(2-acetylamino-ethyl)-carbamic acid tert-butyl ester] | < 199 nM
14 | CC(C)C1=C2[C@H]3CC[C@@H]4[C@@]5(C)CC[C@H](OC(=O)CC(C)(C)C(=O)O)C(C)(C)[C@@H]5CC[C@@]4(C)[C@]3(C)CC[C@@]2(C(=O)NCCN)CC1=O [9-21, 3β-O-(3′,3′-Dimethylsuccinyl)-21-oxolup-18-en-28-oic acid N-(2-amino-ethyl)-acetamide] | < 199 nM
15 | CC(=O)NCCNC(=O)[C@@]12CC[C@]3(C)[C@H](CC[C@@H]4[C@@]5(C)CC[C@H](OC(=O)CC(C)(C)C(=O)O)C(C)(C)[C@@H]5CC[C@]43C)C1=C(C(C)C)C(=O)C2 [9-22, 3β-O-(3′,3′-Dimethylsuccinyl)-21-oxolup-18-en-28-oic acid N-(2-acetylamino-ethyl)-acetamide] | < 199 nM
16 | CC(C)NC(=O)NCCNC(=O)[C@@]12CC[C@]3(C)[C@H](CC[C@@H]4[C@@]5(C)CC[C@H](OC(=O)CC(C)(C)C(=O)O)C(C)(C)[C@@H]5CC[C@]43C)C1=C(C(C)C)C(=O)C2 [9-23, 3β-O-(3′,3′-Dimethylsuccinyl)-21-oxolup-18-en-28-oic acid N-[2-(3-isopropyl-ureido)-ethyl]-acetamide] | < 199 nM
17 | COC(=O)NCCNC(=O)[C@@]12CC[C@]3(C)[C@H](CC[C@@H]4[C@@]5(C)CC[C@H](OC(=O)CC(C)(C)C(=O)O)C(C)(C)[C@@H]5CC[C@]43C)C1=C(C(C)C)C(=O)C2 [9-24, 3β-O-(3′,3′-Dimethylsuccinyl)-21-oxolup-18-en-28-oic acid N-(2-acetylamino-ethyl)-carbamic acid methyl ester] | < 199 nM
18 | CC(C)C1=C2[C@H]3CC[C@@H]4[C@@]5(C)CC[C@H](OC(=O)CC(C)(C)C(=O)O)C(C)(C)[C@@H]5CC[C@@]4(C)[C@]3(C)CC[C@@]2(C(=O)Nc2ccccn2)CC1=O [9-25, 3β-O-(3′,3′-Dimethylsuccinyl)-21-oxolup-18-en-28-oic acid N-pyridin-2-yl-acetamide] | < 199 nM

Same assay, conditions: Human immunodeficiency virus 1, MT2, MT-2 cells, without HS, average IC50 if tested more than once, read-out: MT-2 (HIVIIIB) IC50 range

Row | Structure (SMILES) | IC50
19 | CC(C)C1=C2[C@H]3CC[C@@H]4[C@@]5(C)CC[C@H](OC(=O)CC(C)(C)C(=O)O)C(C)(C)[C@@H]5CC[C@@]4(C)[C@]3(C)CC[C@@]2(C(=O)NCc2ccccc2)CC1=O [9-1, 3β-O-(3′,3′-Dimethylsuccinyl)-21-oxolup-18-en-28-oic acid N-benzylamide] | < 199 nM
20 | CNC(=O)[C@@]12CC[C@]3(C)[C@H](CC[C@@H]4[C@@]5(C)CC[C@H](OC(=O)CC(C)(C)C(=O)O)C(C)(C)[C@@H]5CC[C@]43C)C1=C(C(C)C)C(=O)C2 [9-2, 3β-O-(3′,3′-Dimethylsuccinyl)-21-oxolup-18-en-28-oic acid N-methylamide] | < 199 nM
21 | CC(C)NC(=O)[C@@]12CC[C@]3(C)[C@H](CC[C@@H]4[C@@]5(C)CC[C@H](OC(=O)CC(C)(C)C(=O)O)C(C)(C)[C@@H]5CC[C@]43C)C1=C(C(C)C)C(=O)C2 [9-3, 3β-O-(3′,3′-Dimethylsuccinyl)-21-oxolup-18-en-28-oic acid N-isopropylamide] | < 199 nM
22 | CC(C)C1=C2[C@H]3CC[C@@H]4[C@@]5(C)CC[C@H](OC(=O)CC(C)(C)C(=O)O)C(C)(C)[C@@H]5CC[C@@]4(C)[C@]3(C)CC[C@@]2(C(=O)NC2CCCCC2)CC1=O [9-4, 3β-O-(3′,3′-Dimethylsuccinyl)-21-oxolup-18-en-28-oic acid N-cyclohexylamide] | < 199 nM
23 | CC(C)C1=C2[C@H]3CC[C@@H]4[C@@]5(C)CC[C@H](OC(=O)CC(C)(C)C(=O)O)C(C)(C)[C@@H]5CC[C@@]4(C)[C@]3(C)CC[C@@]2(C(=O)NCC2CCCCC2)CC1=O [9-5, 3β-O-(3′,3′-Dimethylsuccinyl)-21-oxolup-18-en-28-oic acid N-cyclohexyl methylamide] | < 199 nM
24 | CC(C)C1=C2[C@H]3CC[C@@H]4[C@@]5(C)CC[C@H](OC(=O)CC(C)(C)C(=O)O)C(C)(C)[C@@H]5CC[C@@]4(C)[C@]3(C)CC[C@@]2(C(=O)NCc2cccc(Cl)c2)CC1=O [9-13, 3β-O-(3′,3′-Dimethylsuccinyl)-21-oxolup-18-en-28-oic acid N-3-chloro-benzylamide] | < 199 nM
25 | COc1ccc(CCNC(=O)[C@@]23CC[C@]4(C)[C@H](CC[C@@H]5[C@@]6(C)CC[C@H](OC(=O)CC(C)(C)C(=O)O)C(C)(C)[C@@H]6CC[C@]54C)C2=C(C(C)C)C(=O)C3)cc1 [9-19, 3β-O-(3′,3′-Dimethylsuccinyl)-21-oxolup-18-en-28-oic acid N-[2-(4-methoxy-phenyl)-ethyl]-acetamide] | < 199 nM
